Data set [1] concerns small intestinal organoids. The experiment in a line: small intestinal organoids culture in vitro (GFP-Lgr5 transgenic mouse crypts). It counts as cell-based. As for the experimental part:
FIGS. 3A-3D display the effect of Compound No. 36 on intestinal organoids culture in vitro. Intestinal organoids were established from culture of small intestinal crypts in GFP-Lgr5 transgene B6 mice. 3-5 passages of organoids were used to test the effect of Compound No. 36 in vitro. After dissociation of organoids, 100 crypts per well mixed with Matrigel-culture medium were plated in 24-well plate. After the Matrigel polymerized, 500 μL of culture medium with different concentrations of Compound No. 36 or vector were added to each well. The growth of the organoids was checked daily. Three days after coculture, organoid numbers and budding numbers were counted under the microscope and were photographed (FIG. 3A). Then, organoids were mechanically disrupted and dissociated into single cells with TrypLE Express. Cells were stained with anti-CD326, annexin V, and 7-AAD to analyze GFP-Lgr5^hi cells apoptosis by flow cytometry (FIGS. 3B-3D).
To further determine whether Compound No. 36 has any direct GVHD organ (e.g., GI tract) toxicity or conversely, a regenerative effects, in the context of BMT, various concentrations of Compound No. 36 was cocultured with established small intestinal organoids, in which the intestine crypts were from the GFP-Leucine-rich repeat-containing G protein-coupled receptor 5 (Lgr5) transgenic mouse strain. Intestinal organoids were established from culture of small intestinal crypts in GFP-Lgr5 transgene B6 mice. 3-5 passages of organoids were used to test the effect of Compound No. 36 in vitro. After dissociation of organoids, 100 crypts per well mixed with Matrigel-culture medium were plated in 24-well plate. After the Matrigel polymerized, 500 μL of culture medium with different concentrations of Compound No. 36 or vector were added to each well. Orgonoid growth was assessed daily. Three days after coculture, organoid numbers and budding numbers were counted under the microscope and were photographed (FIG. 3A). […] Organoids were then mechanically disrupted and dissociated into single cells with TrypLE Express. […]

For data set [2], the system named is acute GVHD in BALB/c recipient mice. The experiment in a line: acute GVHD model, C57BL/6 (H-2Kb) into BALB/c (H-2Kd) MHC mismatch bone marrow transplantation. It counts as in vivo, mouse. The following applies: for survival: allogeneic recipients, 25 mg/kg i.p., p<0.001. The protocol: FIGS. 1A-1C. Compound No. 36 treatment of acute GVHD model. BALB/c recipient mice on day 0 received 5×10^6 of bone marrow cells and 1×10^6 of purified splenic T cells from allogeneic C57BL/6 donor or syngeneic BALB/c donor following lethal irradiation with 800 rads on day −1. Recipients received intraperitoneal injections of 25 mg/kg of Compound No. 36 or vector starting on day −1, then three times weekly, from day −1 to day 21. Mice were monitored […]. […] Data in *, P<0.05; **, P<0.01. Syn—syngenic; Allo—allogeneic.
To determine whether Compound No. 36 affects established parameters of acute GVHD, a well-established C57BL/6 (H-2Kb) into a BALB/c (H-2Kd) major histocompatibility complex (MHC) mismatch model was used. On day 0, BALB/c recipient mice received 5×10^6 of bone marrow cells and 1×10^6 of purified splenic T cells from allogeneic C57BL/6 donor or syngeneic BALB/c donor following lethal irradiation with 800 centiGray (units of radiation) on day −1. Recipients received intraperitoneal injections of 25 mg/kg every other day of Compound No. 36 or vector from day −1 to day 21. Mice were monitored daily for survival and weekly for GVHD score.

The subject of data set [3] is A20 mouse BALB/c lymphoma cell line in BALB/c recipient mice. As to the kind of experiment: graft-versus tumor (GVT): acute GVHD model challenged with A20 tumor cells. It counts as in vivo. From the text: FIGS. 2A-2C. Compound No. 36 treatment of acute GVHD model challenged with A20 tumor cells. Using the same method as described in FIGS. 1A-1C, BALB/c recipient mice underwent major histocompatibility complex (MHC) major mismatch allogeneic bone marrow transplantation (BMT) with C57BL/6 donor or with BALB/c donor as syngeneic control. BALB/c recipient mice on day 0 received 5×10^6 of bone marrow cells and 1×10^6 of purified splenic T cells with or without 0.5×10^6 A20 cells inoculum. As indicated here, recipients received intraperitoneal injections of 25 mg/kg of Compound No. 36 or vector starting on day −1, then three time weekly, from day −1 to day 21. Mice were monitored weekly for survival and GVHD score. FIG. 2A indicates body weight changes of animals measured weekly.
Data in *, P<0.05; **, P<0.01. Syn—syngenic; Allo—allogeneic.
As GVHD is tightly linked to the graft-versus tumor (GVT) response, testing was undertaken to determine whether Compound No. 36 treatment reduces the effect of GVT in the same mouse model as for GVHD (Example 1). To that end, a mouse BALB/c lymphoma cell line, A20 (0.5×10^6), thus syngeneic to the recipients, was incorporated to the bone marrow transplantation (BMT) cell inoculum on day 0. Recipients received the same doses of Compound No. 36 or vector from day −1 to day 21 as the above model. Syngeneic recipients of BALB/c to BALB/c were also setup with or without A20 cell inoculum and injected the same doses of Compound No. 36 or vector. Syngeneic recipients challenged with A20 cells got systemic tumor infiltration (lower-limb paralysis, hepatosplenomegaly) and 100% of recipients died within 3 weeks after BMT without Compound No. 36 treatment (FIG. 2A and FIG. 2B).

The values below come from US20230133504A1, “METHOD OF TREATING GRAFT-VERSUS-HOST DISEASE” (REGENTS OF THE UNIVERSITY OF MICHIGAN, priority 2021, published 2023).

As to `NC(=O)CC[C@H](NC(=O)[C@@H]1CC[C@@H]2CCN(C(=O)CCCCCC#Cc3cccc4c3CN(C3CCC(=O)NC3=O)C4=O)C[C@H](NC(=O)c3cc4cc(C(F)(F)P(=O)(O)O)ccc4[nH]3)C(=O)N21)C(=O)NC(c1ccccc1)c1ccccc1` (stereo partly drawn) [Compound No. 36, ((2-(((5S,8S,10aR)-8-(((S)-5-amino-1-(benzhydrylamino)-1,5-dioxopentan-2-yl)carbamoyl)-3-(8-(2-(2,6-dioxopiperidin-3-yl)-1-oxoisoindolin-4-yl)oct-7-ynoyl)-6-oxodecahydropyrrolo[1,2-a][1,5]diazocin-5-yl)carbamoyl)-1H-indol-5-yl)difluoromethyl)phosphonic acid], the toxicity on intestine entry in data set [1] (conclusion from the organoid data) is recorded as “does not have significant toxicity on intestine”. For the same molecule, the “organoid numbers and budding numbers” value in data set [1] (three days after coculture, series concentrations) is “No significant changes were observed”. The “Lgr5-GFP+ stem cells and Annexin V expression (apoptosis) by flow cytometry” value in data set [1] (three days after coculture, vs. vector group) is “no differences between vector group and Compound No. 36 treatment group were observed”. Also, the “acute GVHD severity (body weight loss and clinical GVHD scores)” value in data set [2] (allogeneic C57BL/6 to BALB/c, 25 mg/kg intraperitoneal every other day, day -1 to day 21, vs. vector) was “significantly reduce acute GVHD severity by reducing body weight loss and clinical GVHD scores”. Further, the survival in data set [2] (day 50, vector 50%) came out at 100%; in data set [2] (day 100, vector 12%), 53%. Moreover, in data set [2] (syngeneic recipients BALB/c to BALB/c, same doses (25 mg/kg i.p.)), the “signs of toxicity or GVHD” value is “did not present any signs of toxicity”. For the same molecule, the survival rate in data set [2] (syngeneic recipients BALB/c to BALB/c, same doses, until the end point) was 100%. Besides, the tumor-related death result in data set [3] (allogeneic GVHD model challenged with A20 cells, by 6 weeks after BMT) was “no tumor-related death was observed”. The mice survival in data set [3] (allogeneic GVHD model challenged with A20 cells, by 6 weeks after BMT, vector 50%, p<0.05) amounted to 100%. The GVHD severity entry in data set [3] (allogeneic GVHD model challenged with A20 cells, by 6 weeks after BMT, vs. vector) was “significantly reduced GVHD severity”. Moreover, the survival time entry in data set [3] (syngeneic recipients receiving A20 cells (0.5x10^6), 25 mg/kg i.p. day -1 to day 21, vs. no treatment (100% died within 3 weeks)) was “significantly extended the survival time”.
